Data on four compounds can be found in patent publication US9828344B2, “Inhibitors of the notch signaling pathway and secretion for use in medicine” (Leibniz-Institut für Altersforschung Fritz-Lipmann-Institut …, priority 2012, dated 2017).

Where two headings read alike, the source gives them in different places.

One series deals with microtubuli or actin. The experiment in a line: Microtubule and actin integrity in HeLa cells. The series is classed as cell-based. To be noted: 4 h.
A further series deals with KlothoS. Description: Secretion of KlothoS from transfected HeLa cells. The series is classed as cell-based. To be noted: 18 h. As for the experimental part: Thereafter cells were fixed and analyzed by immunofluorescence microscopy. […] After incubating with compounds for 18 h media were collected, cells lysed and both analyzed by Western Blotting using Klotho antibody. As loading control membranes were probed for actin. […] […] Tunicamycin (Tun) and 5 mM DTT were used as positive controls. […] Shown is the average of three independent experiments, error bars indicate standard deviation.

For the next series, the system named is Golgi apparatus. The experiment in a line: Immunofluorescence of Golgi and early secretory pathway markers in HeLa cells. The format is cell-based.
The subject of series [1] is BIP and ATF6. Description: ER stress: BIP Western blot and ATF6 luciferase assay in HeLa cells. To be noted: 6 or 24 h. Background: A western blot detects proteins with antibodies after separation by electrophoresis.
Another series relates to endocytosis. Description: Transferrin uptake assay. The format is cell-based. As for the experimental part: FIG. 13: FLI-06 causes dispersal of early Golgi and TGN, but no tubulation of endosomes. Hela cells were incubated with DMSO or 10 iM FLI-06 or 1 ig/ml BFA for 18 h, fixed, stained with antibodies as indicated and imaged by fluorescence microscopy. Endosomes were visualized by adding Alexa555-labelled transferrin on ice and chasing for 15 min at 37° C. in the presence of indicated compounds. Arrows indicated tubulating endosomes, scalebar 10 im.
For the transferrin uptake assay cells were starved in serum free medium for 1 h at 37° C. Cells were then transferred on ice and medium was exchanged to serum free medium supplemented with 25 μg/ml AlexaFluor555-Transferrin conjugate (Molecular Probes) and test compounds. After 15 min on ice cells were incubated with pre-warmed serum-supplemented medium containing test compounds and incubated at 37° C.

A further series has as its system YFP-GPI. Description: Surface transport of YFP-GPI in HeLa cells. The series is classed as cell-based. To be noted: 18 h; 1 ig/ml BFA or 10 iM FLI-06.
The target of the next series is T1, GBF1 (Homo sapiens, UniProt Q92538).
T1 construct: expressed in transfected cells; host or cells: HeLa (transient)
T1 sequence (Q92538 whole entry, species assumed): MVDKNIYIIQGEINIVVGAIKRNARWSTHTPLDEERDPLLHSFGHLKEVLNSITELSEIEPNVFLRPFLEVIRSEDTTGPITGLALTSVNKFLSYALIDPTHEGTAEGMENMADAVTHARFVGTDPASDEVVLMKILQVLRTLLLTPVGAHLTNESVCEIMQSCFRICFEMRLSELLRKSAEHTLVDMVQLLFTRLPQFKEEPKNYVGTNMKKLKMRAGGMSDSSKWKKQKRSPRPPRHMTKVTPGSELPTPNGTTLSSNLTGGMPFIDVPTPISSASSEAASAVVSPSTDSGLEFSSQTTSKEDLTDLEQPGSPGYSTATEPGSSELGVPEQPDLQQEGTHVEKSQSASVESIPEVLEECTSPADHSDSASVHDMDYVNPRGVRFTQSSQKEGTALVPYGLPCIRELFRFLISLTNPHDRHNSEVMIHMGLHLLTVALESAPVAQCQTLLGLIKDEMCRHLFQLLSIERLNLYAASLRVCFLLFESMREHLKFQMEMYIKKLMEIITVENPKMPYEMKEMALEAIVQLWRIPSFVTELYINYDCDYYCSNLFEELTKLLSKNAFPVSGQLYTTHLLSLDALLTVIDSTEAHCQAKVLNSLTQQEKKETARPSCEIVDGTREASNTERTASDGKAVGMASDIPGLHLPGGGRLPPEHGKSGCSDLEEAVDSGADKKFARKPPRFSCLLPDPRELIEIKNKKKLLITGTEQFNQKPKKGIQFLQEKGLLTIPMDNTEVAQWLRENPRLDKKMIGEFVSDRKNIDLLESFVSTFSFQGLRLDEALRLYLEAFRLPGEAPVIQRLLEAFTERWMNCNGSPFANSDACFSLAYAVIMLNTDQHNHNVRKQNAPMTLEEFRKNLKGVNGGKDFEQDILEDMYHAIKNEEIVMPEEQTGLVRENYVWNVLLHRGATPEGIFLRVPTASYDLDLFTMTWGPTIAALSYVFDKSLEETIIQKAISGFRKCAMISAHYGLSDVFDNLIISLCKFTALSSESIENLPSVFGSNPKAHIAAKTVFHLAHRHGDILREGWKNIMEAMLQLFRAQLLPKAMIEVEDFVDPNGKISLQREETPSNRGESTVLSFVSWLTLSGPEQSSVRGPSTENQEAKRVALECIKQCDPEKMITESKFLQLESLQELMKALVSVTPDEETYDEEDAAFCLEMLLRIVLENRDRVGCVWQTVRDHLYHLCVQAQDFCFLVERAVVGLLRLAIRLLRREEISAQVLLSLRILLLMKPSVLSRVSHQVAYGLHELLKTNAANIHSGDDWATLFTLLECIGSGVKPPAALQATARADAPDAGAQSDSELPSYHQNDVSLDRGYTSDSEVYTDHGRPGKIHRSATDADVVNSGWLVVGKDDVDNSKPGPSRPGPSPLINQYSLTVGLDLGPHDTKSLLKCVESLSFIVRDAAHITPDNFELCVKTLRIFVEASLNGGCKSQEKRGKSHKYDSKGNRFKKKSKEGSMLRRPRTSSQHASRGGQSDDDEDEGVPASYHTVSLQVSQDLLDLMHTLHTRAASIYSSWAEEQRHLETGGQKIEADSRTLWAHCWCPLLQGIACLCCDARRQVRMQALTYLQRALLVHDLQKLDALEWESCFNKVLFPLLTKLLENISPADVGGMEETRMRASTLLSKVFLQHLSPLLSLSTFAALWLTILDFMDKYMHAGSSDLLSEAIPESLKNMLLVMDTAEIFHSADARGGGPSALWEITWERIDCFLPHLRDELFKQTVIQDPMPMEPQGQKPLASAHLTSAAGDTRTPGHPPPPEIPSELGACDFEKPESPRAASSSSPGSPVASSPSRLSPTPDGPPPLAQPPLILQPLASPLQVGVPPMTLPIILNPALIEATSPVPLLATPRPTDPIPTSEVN
Description: GBF1-GFP distribution in transfected HeLa cells. To be noted: FLI-06 10 μM, BFA 10 μg/ml, GCA 10 μM, 10 h. The format is cell-based.

The subject of series [2] is BIP and ATF6.

Consider `C=C1[C@@H](C)[C@H]2[C@H](Cc3ccccc3)NC(=O)[C@]23[C@H](OC(C)=O)/C=C/[C@@](C)(O)C(=O)[C@@H](C)C/C=C/[C@H]3[C@@H]1O` [Cytochalasin D, cytochalasin D, reference compound], for which the “actin polymerization and distribution” value with microtubuli or actin (2 iM cytochalasin D or 10 iM FLI-06) is “depolymerized f-actin”.
Regarding `C[C@H]1CCC/C=C/[C@@H]2C[C@H](O)C[C@H]2[C@H](O)/C=C/C(=O)O1` [BFA, Brefeldin A, reference compound], the “secretion of KlothoS” value in the series with KlothoS was “inhibit secretion of KlothoS”. In addition, in the series on Golgi apparatus (1 ig/ml BFA or 10 iM FLI-06), the “time to loss of Golgi-like juxtanuclear βCOP staining” value was found to be 10 min. For the same compound, the “distribution of GM130 and TGN46” value in the series on Golgi apparatus (10 iM FLI-06 or 1 ig/ml BFA, 18 h) is “dispersal of the cis-Golgi marker GM130 and of the trans-Golgi network (TGN) marker TGN46”. Further, the “hyperglycosylation of VSVG-EGFP” value in the series with Golgi apparatus (4 h at 40° C. with cycloheximide) is recorded as “led to hyperglycosylation in the ER”. Besides, the “ER-stress (BIP up-regulation, ATF6 luciferase)” value in the series on BIP and ATF6 [1] is reported as “caused ER-stress”. Further, the endocytosis of transferrin result in the series on endocytosis is recorded as “did not affect endocytosis”. In the series with YFP-GPI, the “surface transport of YFP-GPI” value was “inhibit surface transport of YFP-GPI”. In addition, the “distribution of GBF1-GFP” value on GBF1 is reported as “recruited to the fragmented Golgi”.
In the case of `COC(=O)Nc1nc2ccc(C(=O)c3cccs3)cc2[nH]1` [nocodazole, reference compound], the microtubule network entry in the series with microtubuli or actin (1.5 ig/ml nocodazole or 10 iM FLI-06) is listed as “almost completely disintegrated”.
`Fc1cc(F)c2c(c1)[C@H]1C=CC[C@H]1C(c1cccnc1)N2` (mixture of isomers) [GCA, Golgicide A, reference compound]: in the series with BIP and ATF6 [2], the “ER-stress (BIP up-regulation, ATF6 luciferase)” value is reported as “caused ER-stress”. Further, on GBF1, the “distribution of GBF1-GFP” value is recorded as “recruited to the fragmented Golgi”.
